Columns and labels:
[1] = molecular target: CYP2D6 (Homo sapiens (Human), UniProt P10635); assay: CYP inhibition assay; format: in vitro ADME; settings: pooled human liver microsomes; extrapolated IC50 derived from 3 μM; read-out: IC50 (μM) of CYP isoforms, 2D6
Protocol: (§1) The ability of substances to inhibit CYP1A2, CYP2C9, CYP2D6, CYP2C19, CYP2J2 and CYP3A4 in humans was investigated with pooled human liver microsomes as enzyme source in the presence of standard substrates (see below) which form CYP-isoform-specific metabolites.
(§2) Standard incubation mixtures comprise NADPH and substrates in 100 mM phosphate buffer (pH 7.4) in a total volume of 200 μl. Test compound are dissolved in acetonitrile. Incubated with pooled human liver microsomes at 37° C. for a defined time. The reactions are stopped by adding 100 μl of acetonitrile in which a suitable internal standard is always present. Precipitated proteins are removed by centrifugation, and the supernatants analyzed by LC-MS/MS. The data represents the extrapolated IC50 (μM) concentration derived from 3 μM.

[2] = molecular target: CYP2C19 (Homo sapiens (Human), UniProt P33261); assay: CYP inhibition assay; format: in vitro ADME; settings: pooled human liver microsomes; extrapolated IC50 derived from 3 μM; read-out: IC50 (μM) of CYP isoforms, 2C19
Chain of CYP2C19 (P33261 whole entry, canonical isoform): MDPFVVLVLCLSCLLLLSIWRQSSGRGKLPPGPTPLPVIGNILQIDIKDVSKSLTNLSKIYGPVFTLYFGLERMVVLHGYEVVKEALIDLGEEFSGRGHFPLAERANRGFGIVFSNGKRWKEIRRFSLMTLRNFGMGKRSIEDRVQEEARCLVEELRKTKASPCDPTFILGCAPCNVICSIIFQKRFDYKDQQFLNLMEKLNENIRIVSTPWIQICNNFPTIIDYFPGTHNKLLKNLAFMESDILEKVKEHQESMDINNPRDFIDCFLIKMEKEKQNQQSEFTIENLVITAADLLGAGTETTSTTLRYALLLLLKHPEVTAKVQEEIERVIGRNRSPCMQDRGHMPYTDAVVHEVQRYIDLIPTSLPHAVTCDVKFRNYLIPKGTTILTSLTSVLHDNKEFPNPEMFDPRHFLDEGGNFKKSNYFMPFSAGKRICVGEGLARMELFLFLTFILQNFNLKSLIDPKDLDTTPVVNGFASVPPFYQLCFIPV
Protocol: as §1, §2

[3] = Stability in buffer at various pH; format: physicochemical; settings: for Analyte Peak Area, Average: Standard average 39849828
Protocol: On completion of incubation period, the solution is centrifuged and supernatant is taken. To the supernatant, ice cold acetonitrile containing IS is added, vortexed and injected into LCMS/MS.
API 4000, ESI Agilent 1100 column: Gemini Nx 100 mm×4.6 mm 5.μ; column temperature: 30° C.; eluent A: 0.1% formic acid in water, eluent B: acetonitrile; gradient: 0-2.5 min 95% A, 5% B; 2.5-2.6 min 5% A, 95% B; 2.6-4.2 min 95% A, 5% B; flow rate: 0.8 ml/min; ESI. Q1:464.098, Q3:144.255
Prepared 0.1 mol of citric acid and 0.2 mol of di sodium hydrogen phosphate in water. Buffer pH 2.2, 4 and 7.8 are prepared using citric acid and disodium hydrogen phosphate by adjusting the pH with 0.1N HCl or 1N NaOHpH 7.4: 8.89 g disodium hydrogen phosphate (Solution A) add to 1 liter of water, 1.5601 g sodium di-hydrogen phosphate (solution B) are made up to 1 liter with water; Solution A (19 ml) and Solution B (81 ml) are mixed. SIF/SGF: 2.38 g of SIF original powder (biorelavant media) is dissolved in 1 L of milliQ water. The pH of the solution is adjusted for SIF (7.4) and SGF (2.2) with 0.1N HCl. The ratios of the peak areas (F) at the respective time points in relation to the peak areas at the starting time are calculated

[4] = test system: plasma protein; assay: Plasma protein binding (rat); format: in vitro ADME
Protocol: (§3) A compound solution (1 mM in DMSO) (5 μL), according to the invention is added to the respective plasma matrices of rat or human or mouse (1 ml).
(§4) Add 150 ul of phosphate buffer to receiving side of the dialysis well. […] Precipitate with Acetonitrile and dilute samples prior to analysis in 1.5 ml polypropylene tubes. Remove 50 μl from the sample side of dialysis well and add 50 μl of phosphate buffer +300 μl of acetonitrile containing IS. Remove 50 μl from the buffer side of the dialysis well and add 50 μl of respective matrix plasma +300 μl of ACN. Then vortexed and centrifuged for 5 min, and supernatant is taken and injected into LCMS.
(§5) Different test concentration ranging from 0.1 μM to 20 μM are made in methanol:water (90:10). Test solutions are added to the premixed matrix containing plasma:phosphate buffer (50:50). Precipitate with 300 μl of ice cold acetonitrile containing IS, vortexes and centrifuged. Supernatant is taken and injected into LCMS. Percentage of plasma protein binding was obtained via Equation(2):% Fraction unbound=(concentration on the buffer side/concentration on the sample side)*100 Table-7

[5] = test system: plasma protein; assay: Plasma protein binding (mouse); format: in vitro ADME
Protocol: as §3, §4, §5

Chain of CYP2D6 (P10635 whole entry, canonical isoform): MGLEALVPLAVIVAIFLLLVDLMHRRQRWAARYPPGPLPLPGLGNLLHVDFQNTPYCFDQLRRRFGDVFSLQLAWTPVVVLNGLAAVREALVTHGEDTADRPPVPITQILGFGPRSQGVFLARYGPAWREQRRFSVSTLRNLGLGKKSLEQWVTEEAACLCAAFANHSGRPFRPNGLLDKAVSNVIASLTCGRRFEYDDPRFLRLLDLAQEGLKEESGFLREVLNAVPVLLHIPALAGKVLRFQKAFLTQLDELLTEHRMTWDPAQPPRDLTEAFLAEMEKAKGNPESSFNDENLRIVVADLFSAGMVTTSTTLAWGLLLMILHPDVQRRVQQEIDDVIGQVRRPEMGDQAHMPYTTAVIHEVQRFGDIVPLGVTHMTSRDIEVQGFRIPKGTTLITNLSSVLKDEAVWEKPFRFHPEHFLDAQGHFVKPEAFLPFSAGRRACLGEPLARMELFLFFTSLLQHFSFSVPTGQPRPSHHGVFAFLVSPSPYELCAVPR

SMILES: O=CN(C[C@H]1CN(c2ccc(N3CCOCC3=O)cc2)C(=O)O1)C(=O)c1ccc(Cl)s1 [Compound formula B, 5-chloro-N-formyl-N-({(5S)-2-oxo-3-[4-(3-oxomorpholin-4-yl)phenyl]-1,3-oxazolidin-5-yl}methyl)thiophene-2-carboxamide]
- IC50 [1]: 8.2 µM
- IC50 [2]: 25.3 µM
- Analyte Peak Area, Average ([3]; buffer pH 2.1, 24 hr room temperature): 28315038 counts
- Analyte Peak Area, Average ([3]; buffer pH 4, 24 hr room temperature): 34879190 counts
- Analyte Peak Area, Average ([3]; buffer pH 7.8, 24 hr room temperature): 38907.5 counts
- stability in varying pH buffer conditions ([3]; rivaroxaban formation observed by LCMS): degraded in varying pH buffer conditions
- Observation: amount of test product [4]: Not quantificable amount
- Observation: formed Rivaroxaban bound to plasma protein [4]: found to be moderate-High
- Observation: amount of test product [5]: Not quantificable amount
- Observation: formed Rivaroxaban bound to plasma protein [5]: found to be moderate-High

Source: patent publication US9359341B2, “Aldehyde derivative of substitute oxazolidinones” (WANBURY LTD., priority 2012, dated 2016)
